According to article PMC6694155, “PTPσ inhibitors promote hematopoietic stem cell regeneration” (Nature Communications, 2019):
“And” between values parts separate entries of the source, which are not always exact repeats. Equal entries are not always repeated.

Assays:
human CD34+CD38− cells [1] = experiment: Annexin V/7AAD apoptosis assay of irradiated human BM CD34+ cells; format: cell-based
Experimental: Eight- to ten-week-old female C57BL/6 mice were irradiated with 500 cGy TBI followed by subcutaneous injections of 5 mg/kg DJ001 or vehicle, or 5 mg/kg DJ001 plus 40 mg/kg EHT1864. Twenty four hours after irradiation, mice were killed to collect BM cells for Annexin V apoptosis analysis. BM cells were stained with APC-Cy7-conjugated anti-mouse Sca1 (BD Biosciences, #560654, 1:100), PE-conjugated anti-ckit (BD Biosciences, #553355, 1:100), and V450 lineage cocktail (BD Biosciences, #561301, 1:10) antibodies for 30 min at 4 °C. Cells were then resuspended in 1× Annexin V binding buffer and then stained with FITC-conjugated anti-Annexin V antibody (BD Biosciences, #556547,1:50) and 7AAD antibody (BD Biosciences, #559925, 1:40)[68]. For in vitro human BM cell apoptosis assays, isolated human BM CD34^+ cells were plated into 96-well plates and then irradiated with 300 cGy. Immediately after irradiation, cells were treated with 5 μg/mL DJ001 or vehicle for 24 h and then collected for Annexin V cell apoptosis analysis. For cell cycle analysis, BM KSL cells were irradiated at 300 cGy and then treated with 1 μg/mL DJ001 or vehicle for 36 h. Subsequently, cells were resuspended in 200 μL of PBS, fixed with 1 mL of ice-cold fixation solution (0.25% Saponin, 2.5% PFA, 2% fetal calf serum (FCS) in PBS), and incubated for 30 min on ice. Cells were washed in Saponin buffer (0.25% Saponin, 2% FCS in PBS) and resuspended in 200 μL of Saponin buffer containing 20 μL of FITC-conjugated anti-Ki67 antibody (BD Biosciences, #556026, 1:10) and 1 μL of RNase (Qiagen, #19101, 100 mg/mL). After 30 min of incubation, cells were washed in Saponin buffer and resuspended for flow analysis in 200 μL of Saponin buffer containing 5 μL 7AAD (BD Biosciences, #559925, 1:40).

human BM CD34+ cells = experiment: Recovery of CD34+CD38− cells from 300 cGy-irradiated human BM CD34+ cells; format: cell-based; conditions: 36 h, 5 µg/mL DJ001
[2] = target: T1, PTPN22 (Protein Tyrosine Phosphatase Non-Receptor Type 22) (Homo sapiens, UniProt Q9Y2R2); experiment: PhosphataseProfiler screen: PTPN22; format: biochemical; conditions: replicates
T1 construct: purchased Eurofins Pharma Discovery Services UK
T1 sequence (Q9Y2R2 whole entry, species assumed): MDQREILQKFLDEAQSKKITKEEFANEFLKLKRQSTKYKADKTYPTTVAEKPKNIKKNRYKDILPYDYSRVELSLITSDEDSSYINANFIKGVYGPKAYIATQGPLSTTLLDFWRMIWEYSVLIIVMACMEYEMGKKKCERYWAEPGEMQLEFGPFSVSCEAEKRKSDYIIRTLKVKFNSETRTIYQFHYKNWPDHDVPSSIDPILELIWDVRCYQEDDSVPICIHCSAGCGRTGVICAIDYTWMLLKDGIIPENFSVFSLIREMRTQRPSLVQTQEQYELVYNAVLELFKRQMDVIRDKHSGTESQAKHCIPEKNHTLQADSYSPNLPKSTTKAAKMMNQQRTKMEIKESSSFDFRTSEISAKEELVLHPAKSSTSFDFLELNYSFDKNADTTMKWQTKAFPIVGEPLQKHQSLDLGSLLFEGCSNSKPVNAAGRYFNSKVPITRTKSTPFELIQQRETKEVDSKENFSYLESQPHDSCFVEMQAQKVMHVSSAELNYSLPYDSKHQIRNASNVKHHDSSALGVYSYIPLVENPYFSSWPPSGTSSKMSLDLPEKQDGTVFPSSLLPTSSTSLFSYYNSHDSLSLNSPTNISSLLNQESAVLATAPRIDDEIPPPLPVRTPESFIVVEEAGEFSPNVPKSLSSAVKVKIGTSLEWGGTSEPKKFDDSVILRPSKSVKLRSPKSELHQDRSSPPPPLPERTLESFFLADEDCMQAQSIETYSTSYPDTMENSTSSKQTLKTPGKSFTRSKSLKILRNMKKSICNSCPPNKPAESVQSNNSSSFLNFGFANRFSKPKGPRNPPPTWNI
Experimental: (§1) Compound DJ001 was evaluated in a PhosphataseProfiler™ screen at 10 μM and 1 μM (2.7 μg/mL and 0.27 μg/mL) concentrations at Eurofins Pharma Discovery Services UK (Study number UK022-0004033) against a panel of 21 Phosphatases. In each experiment, the respective reference antagonist/agonist was tested directly with DJ001 and the data were compared with historical values determined at Eurofins. DJ001 compound inhibition was calculated as percentage inhibition of the enzymatic activity compared with control.

[3] = target: T2, DUSP22 (Dual Specificity Phosphatase 22) (Homo sapiens, UniProt Q9NRW4); experiment: PhosphataseProfiler screen: DUSP22; format: biochemical; conditions: replicates
T2 construct: purchased Eurofins Pharma Discovery Services UK
T2 sequence (Q9NRW4 whole entry, species assumed): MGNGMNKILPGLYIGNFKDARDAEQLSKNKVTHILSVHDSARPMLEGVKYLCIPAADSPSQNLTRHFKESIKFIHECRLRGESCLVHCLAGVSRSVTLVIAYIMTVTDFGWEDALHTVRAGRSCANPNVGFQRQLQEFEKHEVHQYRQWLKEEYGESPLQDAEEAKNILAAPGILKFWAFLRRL
Experimental: as §1

[4] = system: BM KSL cells / BM lin− cells; experiment: Gene expression of cell cycle regulatory genes (qPCR); format: cell-based, mouse
Experimental: Rac1 CDS-targeting- and Bcl2l1 CDS-targeting shRNA in lentiviral plasmid (TRCN0000310888 and TRCN0000004685) and control shRNA (SHC216V) were purchased from Sigma Aldrich. For viral production, 293T cells were transfected with lentiviral gag/pol and VSV-G (courtesy of Donald Kohn, UCLA) and the lentiviral plasmids, at a ratio of 2.2: 1.2: 3.3 (in [μg], gag/pol:VSVG:Plasmid) using Lipofectamine 3000 and P300 Enhancer. Viral particles were collected after 24 h and 48 h. One milliliter of viral supernatant was used to infect 0.75 × 10^6 BM lin^− cells. Infected cells were collected the next day and irradiated with 300 cGy followed by treatment with or without 1 μg/mL DJ001, prior to CFC assay.
(§2) For all studies, RNA was isolated using the Qiagen RNeasy micro kit (Qiagen). RNA was reverse transcribed using the High-Capacity cDNA Reverse Transcription Kit (ThermoFisher Scientific) and was then used for quantitative PCR with SYBR Select Master Mix (Life Technologies). Values were normalized to housekeeping gene Gapdh/GAPDH and given as ΔΔCt values normalized to media-treated, non-irradiated BM KSL cells (2(−ΔΔC(T)) method)[67].

BM KSL cells = experiment: Cell cycle analysis (Ki67/7AAD) of BM KSL cells; format: cell-based, mouse; conditions: non-irradiated BM KSL cells, 36 hours
[5] = target: T3, PTPσ-p250GAP complex in BM KSL cells (Mus musculus, UniProt B0V2N1); experiment: Proximity ligation assay; format: cell-based; conditions: 1 μg/mL DJ001, 1 h
T3 construct: endogenous in cells; host or cells: primary bone marrow KSL (c-kit+ Sca-1+ lin-) cells of C57BL/6 mice
T3 sequence (B0V2N1 30-1907, one chain of several): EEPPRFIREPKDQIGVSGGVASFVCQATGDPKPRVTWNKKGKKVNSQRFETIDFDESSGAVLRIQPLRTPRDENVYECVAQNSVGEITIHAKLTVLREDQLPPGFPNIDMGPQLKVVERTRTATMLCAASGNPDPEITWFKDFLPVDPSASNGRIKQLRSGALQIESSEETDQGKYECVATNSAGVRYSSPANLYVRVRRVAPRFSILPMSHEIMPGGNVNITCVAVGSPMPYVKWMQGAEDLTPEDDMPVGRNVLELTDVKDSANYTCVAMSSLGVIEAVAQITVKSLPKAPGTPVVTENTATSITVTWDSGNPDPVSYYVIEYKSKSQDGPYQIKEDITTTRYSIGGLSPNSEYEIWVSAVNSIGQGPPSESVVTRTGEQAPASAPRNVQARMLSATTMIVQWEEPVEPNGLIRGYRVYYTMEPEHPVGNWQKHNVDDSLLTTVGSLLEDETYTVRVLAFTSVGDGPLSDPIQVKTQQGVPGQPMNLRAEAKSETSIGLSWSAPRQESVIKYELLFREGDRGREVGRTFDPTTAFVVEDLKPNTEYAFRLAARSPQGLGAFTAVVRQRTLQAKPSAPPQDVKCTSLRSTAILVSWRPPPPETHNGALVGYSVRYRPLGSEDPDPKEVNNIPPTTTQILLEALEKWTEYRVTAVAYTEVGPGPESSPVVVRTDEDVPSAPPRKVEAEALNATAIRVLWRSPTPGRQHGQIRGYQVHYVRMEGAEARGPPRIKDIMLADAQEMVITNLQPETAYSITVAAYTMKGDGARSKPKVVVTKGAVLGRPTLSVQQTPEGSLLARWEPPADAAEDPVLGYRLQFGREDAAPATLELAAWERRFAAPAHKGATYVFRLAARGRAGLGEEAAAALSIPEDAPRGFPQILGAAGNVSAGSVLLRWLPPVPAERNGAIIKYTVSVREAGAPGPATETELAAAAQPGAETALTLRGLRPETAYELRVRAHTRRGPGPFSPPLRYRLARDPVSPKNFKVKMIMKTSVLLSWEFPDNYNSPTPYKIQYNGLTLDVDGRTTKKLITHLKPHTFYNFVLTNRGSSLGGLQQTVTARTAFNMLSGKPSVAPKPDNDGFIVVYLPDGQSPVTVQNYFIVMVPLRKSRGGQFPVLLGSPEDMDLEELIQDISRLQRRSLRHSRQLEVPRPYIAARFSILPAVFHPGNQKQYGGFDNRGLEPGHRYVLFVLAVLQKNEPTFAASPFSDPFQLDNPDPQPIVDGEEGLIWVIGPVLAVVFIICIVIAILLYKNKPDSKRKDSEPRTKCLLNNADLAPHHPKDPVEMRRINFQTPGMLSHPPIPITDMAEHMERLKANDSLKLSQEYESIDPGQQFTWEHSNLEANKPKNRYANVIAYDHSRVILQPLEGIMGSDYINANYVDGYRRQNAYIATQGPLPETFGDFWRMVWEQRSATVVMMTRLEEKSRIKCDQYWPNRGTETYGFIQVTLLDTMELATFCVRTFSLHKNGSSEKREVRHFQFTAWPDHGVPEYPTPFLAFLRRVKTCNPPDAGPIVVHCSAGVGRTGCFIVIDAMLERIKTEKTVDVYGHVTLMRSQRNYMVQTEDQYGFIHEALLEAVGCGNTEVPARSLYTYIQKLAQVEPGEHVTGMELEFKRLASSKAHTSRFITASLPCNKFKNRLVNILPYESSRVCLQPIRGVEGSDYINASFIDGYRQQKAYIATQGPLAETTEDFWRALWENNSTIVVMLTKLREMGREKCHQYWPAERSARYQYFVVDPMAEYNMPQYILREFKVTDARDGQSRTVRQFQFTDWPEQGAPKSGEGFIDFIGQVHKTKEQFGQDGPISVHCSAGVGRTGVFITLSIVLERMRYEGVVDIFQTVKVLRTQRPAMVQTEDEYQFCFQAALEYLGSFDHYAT
Experimental: A PLA assay was performed by using the Duolink In Situ Red Starter Kit (Millipore Sigma) to detect the binding between PTPσ and p250GAP proteins. BM KSL cells from C57BL/6 mice were sorted by fluorescence-activated cell sorting and then plated onto fibronectin pre-coated chamber slides overnight. The next day, cells were treated with 1 μg/mL DJ001 or vehicle (equal volume of DMSO) for 1 h at 37 °C. Cells were then fixed with 4% paraformaldehyde (PFA) for 20 min. The slides were blocked with Duolink blocking solution and incubated with rabbit anti-ARHGAP32 polyclonal antibody (Bioss Antibodies, #bs-9296R, 1:50 dilution) and goat anti-PTPσ (K-19) polyclonal antibody (Santa Cruz Biotechnology, #sc-10873, 1:50) overnight at 4 °C. Cells were imaged using a Leica SP8 Confocal Microscope equipped with a ×63 objective lens. A white light laser set to 580 nm was used to excite dsRed and a UV laser was used to excite 4′,6-diamidino-2-phenylindole (DAPI). Analysis was performed using the spots detection function in IMARIS 9.0.2 (Bitplane).

human CD34+CD38− cells [6] = experiment: BCL2L1 and MCL-1 gene expression in irradiated human CD34+CD38− cells (qPCR); format: cell-based
Source text: as §2

[7] = irradiated human BM CD34+ cells, replicates
[8] = KSL cells, 36 h following 300 cGy, normalized to Gapdh and media
[9] = irradiated human CD34+CD38− cells, qPCR, replicates

## O=C(/C=C\Nc1cccc([N+](=O)[O-])c1)c1ccccc1 [DJ001, (Z)-3-((3-nitrophenyl)amino)-1-phenylprop-2-en-1-one]
Human CD34+CD38− cells [1]; 24 h after 300 cGy
  radiation-induced apoptosis of human CD34+CD38− cells: decreased radiation-induced apoptosis
Human CD34+CD38− cells [1]; [7]
  Figure 5c (left panel): Annexin V/7AAD assay: 85.79 and 85.23 and 84.4 and 88.36 and 87.91 and 86.9 and 86.4 and 88.8 and 87.8 and 88
  Figure 5c (right panel): Annexin V/7AAD assay: 10.98 and 10.1 and 10.94 and 7.63 and 8.04 and 12.5 and 13.3 and 11 and 12.1 and 11.7
Human BM CD34+ cells
  recovery of viable human BM CD34+CD38− cells following irradiation: increased the recovery
[2]; 2.7 μg/mL DJ001
  Supplementary Figure 1: PTPN22 activity: 94 (2×) and 89
[2]; 0.27 g/mL DJ001
  Supplementary Figure 1: PTPN22 activity: 103 and 99 and 94
[3]; 0.27 μg/mL DJ001
  Supplementary Figure 1: DUSP22 activity: 107 and 96 (2×)
[3]; 2.7 μg/mL DJ001
  Supplementary Figure 1: DUSP22 activity: 98 and 109 and 100
[4]; BM KSL cells transduced with Rac1-shRNA
  DJ001-mediated transcription of Cdk2 and Cyclin E with Rac1-shRNA: blocked DJ001-mediated transcription of Cdk2 and Cyclin E
[4]; BM lin− cells, 48 h after 300 cGy, shCtrl
  Fold changes (2^−ΔΔCt) of Cyclin E expression (Figure 4c right panel): 1.96 and 1.7 and 1.9
[4]; BM lin− cells, 48 h after 300 cGy, shRac1
  Fold changes (2^−ΔΔCt) of Cdk2 expression (Figure 4c left panel): 0.56 and 0.39 and 0.71 and 0.44
[4]; [8]
  Fold changes (2^−ΔΔCt) of Cdk2 expression: 1.9 and 2.08 and 1.8
  Fold changes (2^−ΔΔCt) of Cdk4 expression: 1.32 and 1.05 and 1
  Fold changes (2^−ΔΔCt) of Cdk6 expression: 1.09 and 0.91 and 0.98
  Fold changes (2^−ΔΔCt) of Cdkn1A expression: 1.43 and 1.41 and 1.14
  Fold changes (2^−ΔΔCt) of Cdkn1B expression: 1.11 and 1.07 and 0.74
  Fold changes (2^−ΔΔCt) of Cyclin D1 expression: 1.54 and 1.21 and 0.97
  Fold changes (2^−ΔΔCt) of Cyclin D2 expression: 1.04 and 1.14 and 0.74
  Fold changes (2^−ΔΔCt) of Cyclin E expression: 2.54 and 2.89 and 2.07
[4]; irradiated BM KSL cells
  expression of Cdk4, Cdk6, Cdkn1a, Cdkn1b, Cyclin D1, Cyclin D2: did not alter the expression
[4]; irradiated KSL cells
  expression of Cdk2 and Cyclin E: significantly increased the expression
BM KSL cells
  cell cycle status: did not alter the cell cycle status
[5]
  co-localization of PTPσ and p250GAP: significantly decreased co-localization
Human CD34+CD38− cells [6]; irradiated human CD34+ cells, 12 h after 300 cGy
  expression of BCL2L1 and MCL-1: increased the expression
Human CD34+CD38− cells [6]; [9]
  Figure 5d: gene expression, BCL-XL: 7.91 and 7.15 and 7.38
  Figure 5d: gene expression, MCL1: 3.75 and 3.41 and 4.98
